{"source": "paper PMC11651915", "about": "“Small molecule protein assembly modulators with pan-cancer therapeutic efficacy” (Open Biology, 2024)", "key": {"[1]": {"test_system": "M14", "experiment": "cells", "format": "cell-based", "settings": "Homo sapiens, NCI-60, 48 h"}, "[2]": {"test_system": "A549/ATCC", "experiment": "cells", "format": "cell-based", "settings": "Homo sapiens, NCI-60, 48 h"}, "[3]": {"test_system": "Hennes 20 cells", "experiment": "High density/low density 'arrest of proliferation' assay", "format": "cell-based, Chinese hamster", "settings": "Hennes 20, 72 h, AlamarBlue"}, "[4]": {"test_system": "OVCAR-5", "experiment": "cells", "settings": "Homo sapiens, OVCAR-5, 48 h"}, "[5]": {"test_system": "COLO 205", "experiment": "cells", "format": "cell-based", "settings": "Homo sapiens, NCI-60, 48 h"}, "[6]": {"test_system": "KM12", "experiment": "cells", "settings": "Homo sapiens, KM12, 48 h"}, "[7]": {"test_system": "HS 578T", "experiment": "cells", "settings": "Homo sapiens, 48 h"}, "[8]": {"test_system": "DB", "experiment": "Eurofins OncoPanel (CellTiter-Glo)", "format": "cell-based", "settings": "Homo sapiens, 72 h, 3 days"}, "[9]": {"test_system": "NCI-H522", "experiment": "cells", "settings": "Homo sapiens, NCI-H522, 48 h"}, "[10]": {"test_system": "HT-29", "experiment": "In-house cancer cell viability screen (AlamarBlue)", "format": "cell-based", "settings": "Homo sapiens, 72 h"}, "[11]": {"test_system": "786-0", "experiment": "cells", "format": "cell-based", "settings": "Homo sapiens, NCI-60, 48 h"}, "[12]": {"test_system": "SN12C", "experiment": "cells", "settings": "Homo sapiens, 48 h"}, "[13]": {"test_system": "MALME-3M", "experiment": "cells", "format": "cell-based", "settings": "Homo sapiens, NCI-60, 48 h"}, "[14]": {"test_system": "LNCaP C-33 cells", "experiment": "Cell growth recovery assay", "format": "cell-based, human", "settings": "PAV-617 0.3 µM 24 h, PAV-951 0.4 µM 6 h, followed"}, "[15]": {"test_system": "MDA-MB-468", "experiment": "cells", "settings": "Homo sapiens, MDA-MB-468, 48 h"}, "[16]": {"test_system": "MDA-MB-435", "experiment": "cells", "format": "cell-based", "settings": "Homo sapiens, NCI-60, 48 h"}, "[17]": {"test_system": "MCF7", "experiment": "Eurofins OncoPanel (CellTiter-Glo)", "format": "cell-based", "settings": "Homo sapiens, 72 h, 3 days"}, "[18]": {"test_system": "A172", "experiment": "Eurofins OncoPanel (CellTiter-Glo)", "format": "cell-based", "settings": "Homo sapiens, A 172, 72 h, 3 days"}, "[19]": {"test_system": "LOX IMVI", "experiment": "cells", "settings": "Homo sapiens, 48 h"}, "[20]": {"test_system": "T-47D", "experiment": "cells", "format": "cell-based", "settings": "Homo sapiens, T47D, NCI-60, 48 h"}, "[21]": {"test_system": "A549 and MRC-5 cells", "experiment": "Toxicity to A549 cancer line versus non-cancer MRC-5 cells", "format": "cell-based"}, "[22]": {"test_system": "OVCAR-8", "experiment": "cells", "settings": "Homo sapiens, OVCAR-8, 48 h"}, "[23]": {"test_system": "BFTC-905", "experiment": "Eurofins OncoPanel (CellTiter-Glo)", "format": "cell-based", "settings": "Homo sapiens, 72 h, 3 days"}, "[24]": {"test_system": "NCI-H226", "experiment": "cells", "settings": "Homo sapiens, NCI-H226, 48 h"}, "[25]": {"test_system": "SF-268", "experiment": "cells", "settings": "Homo sapiens, SF-268, 48 h"}, "[26]": {"test_system": "A549 human lung cancer xenograft", "experiment": "A549 xenograft studies", "settings": "A549 xenograft, PAV-951 study, 14 days, IV; PAV-951 1.5 mg kg^−1 once daily, Gemcitabine 100 mg kg^−1 twice weekly"}, "[27]": {"test_system": "A498", "experiment": "cells", "settings": "Homo sapiens, A498, 48 h"}, "[28]": {"test_system": "SK-MEL-28", "experiment": "cells", "settings": "Homo sapiens, SK-MEL-28, 48 h"}, "[29]": {"test_system": "COR-L105", "experiment": "Eurofins OncoPanel (CellTiter-Glo)", "format": "cell-based", "settings": "Homo sapiens, 72 h, 3 days"}, "[30]": {"test_system": "UACC-62", "experiment": "cells", "settings": "Homo sapiens, UACC-62, 48 h"}, "[31]": {"test_system": "U251", "experiment": "cells", "settings": "Homo sapiens, U-251, 48 h"}, "[32]": {"experiment": "in vivo", "settings": "female, Balb/c, mouse, ip"}, "[33]": {"test_system": "SNB-75", "experiment": "cells", "settings": "Homo sapiens, SNB-75, 48 h"}, "[34]": {"test_system": "FaDu", "experiment": "Eurofins OncoPanel (CellTiter-Glo)", "format": "cell-based", "settings": "Homo sapiens, 72 h, 3 days"}, "[35]": {"test_system": "BB1 patient biopsy derived cell line (benign adenoma)", "experiment": "BB1 and BB5 adenoma versus carcinoma screen (confocal imaging)", "format": "cell-based, human", "settings": "Homo sapiens, 60 h, percent ChromaLive negative"}, "[36]": {"test_system": "Hs 294T", "experiment": "Eurofins OncoPanel (CellTiter-Glo)", "format": "cell-based", "settings": "Homo sapiens, 72 h, 3 days"}, "[37]": {"test_system": "EKVX", "experiment": "cells", "settings": "Homo sapiens, 48 h"}, "[38]": {"test_system": "OVCAR-3", "experiment": "cells", "settings": "Homo sapiens, OVCAR-3, 48 h"}, "[39]": {"test_system": "ACHN", "experiment": "cells", "settings": "Homo sapiens, 48 h"}, "[40]": {"test_system": "NCI/ADR-RES", "experiment": "cells", "settings": "Homo sapiens, 48 h"}, "[41]": {"test_system": "CAKI-1", "experiment": "cells", "format": "cell-based", "settings": "Homo sapiens, NCI-60, 48 h"}, "[42]": {"test_system": "SK-OV-3", "experiment": "cells", "settings": "Homo sapiens, SK-OV-3, 48 h"}, "[43]": {"test_system": "PC-3", "experiment": "cells", "format": "cell-based", "settings": "Homo sapiens, NCI-60, 48 h"}}, "data": [{"smiles": "CC(C)CCNc1ncnc2cc(N3CCN(c4ccc5c(NCCC(C)C)ncnc5c4)CC3)ccc12", "note": "[PAV-951]", "values": [{"measurement": "GI50", "setting": "[1]", "value": 0.533, "unit": "µM"}, {"measurement": "GI50", "setting": "[2]", "value": 0.302, "unit": "µM"}, {"measurement": "inhibitory effect at low (500 cells per well) versus high (15 000 cells per well) density", "setting": "[3]", "value": "difference between their inhibitory effects on low and high density-plated Hennes 20 cells"}, {"measurement": "GI50", "setting": "[4]", "value": 1.08, "unit": "µM"}, {"measurement": "CC50", "setting": "[4]; read-out: LC50", "value": 4.83, "unit": "µM"}, {"measurement": "GI50", "setting": "[5]", "value": 0.61, "unit": "µM"}, {"measurement": "GI50", "setting": "[6]", "value": 0.227, "unit": "µM"}, {"measurement": "CC50", "setting": "[6]; read-out: LC50", "value": 3.85, "unit": "µM"}, {"measurement": "GI50", "setting": "[7]", "value": 0.352, "unit": "µM"}, {"measurement": "CC50", "setting": "[7]; read-out: LC50", "value": "> 100", "unit": "µM"}, {"measurement": "IC50", "setting": "[8]", "value": 0.895, "unit": "µM"}, {"measurement": "GI50", "setting": "[9]", "value": 1.77, "unit": "µM"}, {"measurement": "CC50", "setting": "[9]; read-out: LC50", "value": 6.95, "unit": "µM"}, {"measurement": "IC50", "setting": "[10]", "value": 0.101, "unit": "µM"}, {"measurement": "GI50", "setting": "[11]", "value": 0.339, "unit": "µM"}, {"measurement": "GI50", "setting": "[12]", "value": 0.28, "unit": "µM"}, {"measurement": "CC50", "setting": "[12]; read-out: LC50", "value": 3.41, "unit": "µM"}, {"measurement": "GI50", "setting": "[13]", "value": 1.52, "unit": "µM"}, {"measurement": "recovery of cell growth after removal of compound", "setting": "[14]", "value": "did not recover"}, {"measurement": "GI50", "setting": "[15]", "value": 1.47, "unit": "µM"}, {"measurement": "CC50", "setting": "[15]; read-out: LC50", "value": 5.61, "unit": "µM"}, {"measurement": "GI50", "setting": "[16]", "value": 0.273, "unit": "µM"}, {"measurement": "IC50", "setting": "[17]", "value": 1.99, "unit": "µM"}, {"measurement": "IC50", "setting": "[18]", "value": 1.02, "unit": "µM"}, {"measurement": "GI50", "setting": "[19]", "value": 0.183, "unit": "µM"}, {"measurement": "CC50", "setting": "[19]; read-out: LC50", "value": 0.684, "unit": "µM"}, {"measurement": "GI50", "setting": "[20]", "value": 0.952, "unit": "µM"}, {"measurement": "toxicity to A549 cancer line compared with non-cancer MRC-5 cells", "setting": "[21]", "value": "selectively toxic to the A549 cancer line"}, {"measurement": "GI50", "setting": "[22]", "value": 0.521, "unit": "µM"}, {"measurement": "CC50", "setting": "[22]; read-out: LC50", "value": 5.18, "unit": "µM"}, {"measurement": "IC50", "setting": "[23]", "value": 0.701, "unit": "µM"}, {"measurement": "GI50", "setting": "[24]", "value": 1.76, "unit": "µM"}, {"measurement": "CC50", "setting": "[24]; read-out: LC50", "value": 6.81, "unit": "µM"}, {"measurement": "GI50", "setting": "[25]", "value": 0.217, "unit": "µM"}, {"measurement": "CC50", "setting": "[25]; read-out: LC50", "value": 2.01, "unit": "µM"}, {"measurement": "tumour growth inhibition (TGI)", "setting": "[26]", "value": 72, "unit": "%"}, {"measurement": "GI50", "setting": "[27]", "value": 1.86, "unit": "µM"}, {"measurement": "CC50", "setting": "[27]; read-out: LC50", "value": 5.92, "unit": "µM"}, {"measurement": "GI50", "setting": "[28]", "value": 1.33, "unit": "µM"}, {"measurement": "CC50", "setting": "[28]; read-out: LC50", "value": 5.24, "unit": "µM"}, {"measurement": "IC50", "setting": "[29]", "value": 0.962, "unit": "µM"}, {"measurement": "GI50", "setting": "[30]", "value": 1.38, "unit": "µM"}, {"measurement": "CC50", "setting": "[30]; read-out: LC50", "value": 5.61, "unit": "µM"}, {"measurement": "GI50", "setting": "[31]", "value": 0.213, "unit": "µM"}, {"measurement": "CC50", "setting": "[31]; read-out: LC50", "value": 0.91, "unit": "µM"}, {"measurement": "MTD", "setting": "[32]", "value": 2.5, "unit": "mg/kg"}, {"measurement": "GI50", "setting": "[33]", "value": 0.304, "unit": "µM"}, {"measurement": "CC50", "setting": "[33]; read-out: LC50", "value": 4.14, "unit": "µM"}, {"measurement": "IC50", "setting": "[34]", "value": 0.523, "unit": "µM"}, {"measurement": "IC50", "setting": "[35]", "value": 3.35, "unit": "µM"}, {"measurement": "IC50", "setting": "[36]", "value": 1.1, "unit": "µM"}, {"measurement": "GI50", "setting": "[37]", "value": 1.75, "unit": "µM"}, {"measurement": "CC50", "setting": "[37]; read-out: LC50", "value": 6.12, "unit": "µM"}, {"measurement": "GI50", "setting": "[38]", "value": 1.05, "unit": "µM"}, {"measurement": "CC50", "setting": "[38]; read-out: LC50", "value": 4.79, "unit": "µM"}, {"measurement": "GI50", "setting": "[39]", "value": 0.586, "unit": "µM"}, {"measurement": "CC50", "setting": "[39]; read-out: LC50", "value": 4.28, "unit": "µM"}, {"measurement": "GI50", "setting": "[40]", "value": 0.401, "unit": "µM"}, {"measurement": "CC50", "setting": "[40]; read-out: LC50", "value": 4.85, "unit": "µM"}, {"measurement": "GI50", "setting": "[41]", "value": 0.311, "unit": "µM"}, {"measurement": "GI50", "setting": "[42]", "value": 1.55, "unit": "µM"}, {"measurement": "CC50", "setting": "[42]; read-out: LC50", "value": 6.34, "unit": "µM"}, {"measurement": "GI50", "setting": "[43]", "value": 0.399, "unit": "µM"}]}]}
